Experimental findings from patent US20250345446A1 (Draupnir Bio ApS, priority 2022, published 2025) are described below.

Read-outs that look alike come from different tables or passages of the source. Residues, ends and D or L forms follow the SMILES beside them. *: point of attachment. Biotin = O=C1N[C@H]2[C@H](CS[C@H]2CCCCC(=O)*)N1

The test system of assay [1] is HEK293 cells expressing full length sortilin receptor. Briefly: Cellular uptake of NA650 in HEK293/sortilin cells. It counts as cell-based. The following applies: Table 6; NA650 (100 nM), 3 h, biotin warhead compounds. The procedure:
Cellular uptake of NA650 was investigated in HEK293 cells expressing full length sortilin receptor (Petersen et. al.). Cells were seeded in poly-L-lysine coated 96-well plates (Perkin Elmer) (40K/well) in 50 μL culture medium (DMEM (Lonza)+10% FBS (SigmaAldrich)+1% penicillin-streptomycin (SigmaAldrich)+1% GlutaMAX (Gibco)+100 μg/mL Zeocin (Invitrogen)) and incubated overnight in cell incubator (37° C., humidified, 5% CO2).
Culture medium was replaced with assay medium (DMEM (Lonza)+10% fetal bovine serum (SigmaAldrich)+1% penicillin-streptomycin (SigmaAldrich)+1% GlutaMAX (Gibco)) containing NA650 (Invitrogen) (100 nM) (Thermo Fischer) and peptidic bifunctional compounds (9.8 nM to 10 μM). Cells were incubated for 3 h in cell incubator before they were washed in dPBS (Bionordika). The DyLight650 signal in the cell layer was detected using a fluorescence plate reader (BMG Labtech Clariostar).
Cellular uptake of NA650 was investigated in HEK293 cells expressing full length sortilin receptor using a methodology analogous to example 3.

Assay [2] has as its target T1, soluble ectodomain of sortilin-6his (Homo sapiens, UniProt Q99523, V650M).
T1 construct: the soluble ectodomain of sortilin-6his is measured by microscale thermophoresis (MST)
Briefly: MST binding to soluble ectodomain of sortilin-6his. The following applies: MST, read-out: KD score, binding to sortilin (Kd).

The target in assay [3] is T2, Streptavidin-d2 and Sortilin-6His (UniProt P22629+Q99523, V650M).
T2 construct: ternary complex formation composed of streptavidin, bifunctional compound and sortilin-6his
Briefly: TR-FRET ternary complex formation streptavidin / small molecule bifunctional compound / sortilin. Type of assay: binding. The following applies: Table 5; 5 μM-0.6 pM, […] incubation. (In general: TR-FRET usually uses a lanthanide donor and a delayed reading to cut background.)

In the next assay the target is TNFa-6His (Homo sapiens, UniProt P01375). The experiment in a line: MST binding to TNFa-6his. The following applies: Table 8, NTA labeled TNFa-6His (100 nM), read-out: KD (score), Kd of TNFalpha binding. The source says:
MST was measure analogously to example 1 using TNFa-6his.

Assay [4] has as its target streptavidin, bifunctional compound and sortilin-6his (UniProt P22629+Q99523, V650M). The experiment in a line: TR-FRET ternary complex formation streptavidin / bifunctional peptide / sortilin-6his. The following applies: Table 2; […] incubation, HTRF ratio 665/620 nm.
Procedure: In these experiments, the compounds of interest were titrated over 24-point in a 384-well TTP LVDS plate (SPT Labtech) to a final buffer composition of 50 mM Bis-Tris Propane pH 8, 50 mM NaCl, 0.05% Tween20, with or without 10% DMSO using a Mosquito LV pipetting robot (SPT Labtech).
The reaction was allowed to incubate for 2.5 hours at room temperature, at which point the HTRF signal ratio at 665/620 nm was determined using a plate reader (ClarioStar, BMG Labtech). All reactions were run in triplicates and data was represented as HTRF ratio as a function of bifunctional compound concentration.
Setting [5] is: Table 4, small molecule bifunctional compounds.
The mark [6] stands for this setting: Table 1, biotin-linker-peptide bifunctional compounds.

T1 sequence (Q99523 with tags, fused parts or gaps V650M): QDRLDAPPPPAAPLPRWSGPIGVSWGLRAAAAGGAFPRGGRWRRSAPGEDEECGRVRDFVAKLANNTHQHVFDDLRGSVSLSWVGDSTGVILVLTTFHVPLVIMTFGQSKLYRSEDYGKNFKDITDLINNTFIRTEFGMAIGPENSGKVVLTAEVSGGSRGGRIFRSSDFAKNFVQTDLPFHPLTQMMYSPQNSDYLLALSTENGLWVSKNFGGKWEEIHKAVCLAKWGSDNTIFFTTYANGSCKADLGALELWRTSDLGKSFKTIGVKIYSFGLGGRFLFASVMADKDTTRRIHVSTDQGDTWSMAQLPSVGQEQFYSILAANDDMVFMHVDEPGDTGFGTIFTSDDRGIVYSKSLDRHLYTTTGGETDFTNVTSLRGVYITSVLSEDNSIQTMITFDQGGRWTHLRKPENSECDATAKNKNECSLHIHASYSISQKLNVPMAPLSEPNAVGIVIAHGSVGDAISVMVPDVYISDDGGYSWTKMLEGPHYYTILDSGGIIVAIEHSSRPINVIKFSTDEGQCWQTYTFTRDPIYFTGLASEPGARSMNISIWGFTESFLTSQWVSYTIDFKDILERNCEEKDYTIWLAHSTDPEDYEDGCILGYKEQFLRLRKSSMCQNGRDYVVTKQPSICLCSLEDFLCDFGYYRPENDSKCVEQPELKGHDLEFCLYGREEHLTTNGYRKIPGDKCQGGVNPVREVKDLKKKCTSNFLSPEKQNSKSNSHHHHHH
Sequence of TNFa-6His (P01375 77-233 limits assumed): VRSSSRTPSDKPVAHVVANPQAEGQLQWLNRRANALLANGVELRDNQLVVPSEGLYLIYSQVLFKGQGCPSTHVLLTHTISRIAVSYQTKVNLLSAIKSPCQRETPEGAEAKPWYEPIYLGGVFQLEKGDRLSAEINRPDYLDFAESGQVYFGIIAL

For the compound `CC(C)(C)CC[C@H](NC(=O)c1ccc(Oc2cccc(OCCOCCOCCOCCOCCOCCOCCOCCOCCNC(=O)CCCC[C@@H]3SC[C@@H]4NC(=O)N[C@@H]43)c2)nc1)C(=O)O` [BF026, (2S)-2-[[6-[3-[2-[2-[2-[2-[2-[2-[2-[2-[2-[5-[(3aS,4S,6aR)-2-oxo-1,3,3a,4,6,6a-hexahydrothieno[3,4-d]imidazol-4-yl]pentanoylamino]ethoxy]ethoxy]ethoxy]ethoxy]ethoxy]ethoxy]ethoxy]ethoxy]ethoxy]phenoxy]pyridine-3-carbonyl]amino]-5,5-dimethyl-hexanoic acid], in assay [1], the “AUC score, target internalization” value is listed as “++ (AUC > 100)”. For the same compound, the Kd in assay [2] (setting [5]) lay in the range of 10 to 250 nM. Also, the “AUC score, ternary complex formation” value in assay [3] is listed as “++ (AUC > 25.000)”.
The matching figures for `CC(C)(C)CC[C@H](NC(=O)c1ccc(Oc2cccc(OCCOCCOCCOCCOCCOCCOCCOCCNC(=O)CCCC[C@@H]3SC[C@@H]4NC(=O)N[C@@H]43)c2)nc1)C(=O)O` [BF017, (2S)-2-[[6-[3-[2-[2-[2-[2-[2-[2-[2-[2-[5-[(3aS,4S,6aR)-2-oxo-1,3,3a,4,6,6a-hexahydrothieno[3,4-d]imidazol-4-yl]pentanoylamino]ethoxy]ethoxy]ethoxy]ethoxy]ethoxy]ethoxy]ethoxy]ethoxy]phenoxy]pyridine-3-carbonyl]amino]-5,5-dimethyl-hexanoic acid]: “++ (AUC > 100)”, 1 to 10 nM and “+ (AUC < 25.000)”.
As to `Cc1cc(-c2ccc(OCC(=O)NCCOCCOCc3cn(CCCCCOc4ncc(-c5nc6c(N[C@@H](C)c7cc(C#N)ccc7F)c(Cl)c(C)nc6cc5F)cn4)nn3)cc2)cc(NC(=O)c2ccc(C(F)(F)F)cc2C(=O)O)n1` [BF080], the Kd on TNFa-6His was under 2000 nM; in assay [2] (setting [5]) it was under 1 nM.
As to `C[C@@H]1CN(c2ncc(-c3ccc4c(n3)N(Cc3cccnc3C#N)C(C)(C)C4=O)cn2)CCN1C(=O)CNC(=O)CCCCCOCCOCCNC(=O)c1cccc(Oc2ccc(C(=O)N[C@@H](CCC(C)(C)C)C(=O)O)cn2)c1` [BF0100], the Kd on TNFa-6His is under 2000 nM.
Consider `Cc1nc2cc(F)c(-c3cnc(OCCCCCn4cc(COCCOCCOCCOCCNC(=O)c5ccc(Oc6cccc(OCC(=O)N[C@@H](CCC(C)(C)C)C(=O)O)c6)nc5)nn4)nc3)nc2c(N[C@H](C)c2cc(C#N)ccc2F)c1Cl` [BF076], for which the Kd at TNFa-6His is under 2000 nM; in assay [2] (setting [5]), 10 to 250 nM.
Turning to `CC(C)(C)CC[C@H](NC(=O)c1ccc(Oc2cccc(C(=O)NCCOCCOCCOCCOCCOCCOCCNC(=O)CCCC[C@@H]3SC[C@@H]4NC(=O)N[C@@H]43)c2)nc1)C(=O)O` [BF023, (2S)-2-[[6-[3-[2-[2-[2-[2-[2-[2-[2-[5-[(3aS,4S,6aR)-2-oxo-1,3,3a,4,6,6a-hexahydrothieno[3,4-d]imidazol-4-yl]pentanoylamino]ethoxy]ethoxy]ethoxy]ethoxy]ethoxy]ethoxy]ethylcarbamoyl]phenoxy]pyridine-3-carbonyl]amino]-5,5-dimethyl-hexanoic acid], the “AUC score, target internalization” value in assay [1] is given as “+ (AUC < 100)”. Further, in assay [2] (setting [5]), the Kd fell in the range of 10 to 250 nM. Moreover, in assay [3], the “AUC score, ternary complex formation” value was “+ (AUC < 25.000)”.
Turning to `CC(C)(C)CC[C@H](NC(=O)c1ccc(Oc2cccc(OCCOCCOCCOCCOCCOCCOCCNC(=O)CCCC[C@@H]3SC[C@@H]4NC(=O)N[C@@H]43)c2)nc1)C(=O)O` [BF019, (2S)-2-[[6-[3-[2-[2-[2-[2-[2-[2-[2-[5-[(3aS,4S,6aR)-2-oxo-1,3,3a,4,6,6a-hexahydrothieno[3,4-d]imidazol-4-yl]pentanoyl-amino]ethoxy]ethoxy]ethoxy]ethoxy]ethoxy]ethoxy]ethoxy]phenoxy]pyridine-3-carbonyl]amino]-5,5-dimethyl-hexanoic acid], the “AUC score, target internalization” value in assay [1] was “+ (AUC < 100)”. Further, the Kd in assay [2] (setting [5]) is 1 to 10 nM. Besides, in assay [3], the “AUC score, ternary complex formation” value is listed as “+ (AUC < 25.000)”.
As for `C[C@@H]1CN(c2ncc(-c3ccc4c(n3)N(Cc3cccnc3C#N)C(C)(C)C4=O)cn2)CCN1C(=O)CNC(=O)COCCOCCOCCOCCOc1cccc(Oc2ccc(C(=O)N[C@@H](CCC(C)(C)C)C(=O)O)cn2)c1` [BF082], the Kd at TNFa-6His is over 2000 nM; in assay [2] (setting [5]), 1 to 10 nM.
The like results for `C[C@@H]1CN(c2ncc(-c3ccc4c(n3)N(Cc3cccnc3C#N)C(C)(C)C4=O)cn2)CCN1C(=O)CNC(=O)CCCCCCCCCCn1cc(-c2cccc(Oc3ccc(C(=O)N[C@@H](CCC(C)(C)C)C(=O)O)cn3)c2)nn1` [BF081, (2S)-2-[[6-[3-[1-[11-[[2-[(2R)-4-[5-[1-[(2-cyano-3-pyridyl)methyl]-2,2-dimethyl-3-oxo-pyrrolo[2,3-b]pyridin-6-yl]pyrimidin-2-yl]-2-methyl-piperazin-1-yl]-2-oxo-ethyl]amino]-11-oxo-undecyl]triazol-4-yl]phenoxy]pyridine-3-carbonyl]amino]-5,5-dimethyl-hexanoic acid] were, in that order, under 2000 nM and 1 to 10 nM.
`CC(C)(C)CC[C@H](NC(=O)c1ccc(Oc2cccc3c(C(=O)NCCCNC(=O)CCOCCOCCOCCOCCNC(=O)CCCC[C@@H]4SC[C@@H]5NC(=O)N[C@@H]54)cccc23)nc1)C(=O)O` [BF020, (2S)-2-[[6-[[5-[3-[3-[2-[2-[2-[2-[5-[(3aS,4S,6aR)-2-oxo-1,3,3a,4,6,6a-hexahydrothieno[3,4-d]imidazol-4-yl]pentanoylamino]ethoxy]ethoxy]ethoxy]ethoxy]propanoylamino]propylcarbamoyl]-1-naphthyl]oxy]pyridine-3-carbonyl]amino]-5,5-dimethyl-hexanoic acid]: the “AUC score, target internalization” value in assay [1] is recorded as “++ (AUC > 100)”. In assay [2] (setting [5]), the Kd was in the range of 10 to 250 nM. For the same compound, the “AUC score, ternary complex formation” value in assay [3] is reported as “++ (AUC > 25.000)”.
Turning to `CC(C)C[C@H](NC(=O)[C@H](CC(C)C)NC(=O)[C@H](CCC(N)=O)NC(=O)[C@H](CCCNC(=N)N)NC(=O)[C@H](CO)NC(=O)CNC(=O)CNC(=O)CNC(=O)CNC(=O)[C@H](CO)NC(=O)CNC(=O)CNC(=O)CNC(=O)CNC(=O)[C@H](CO)NC(=O)CNC(=O)CNC(=O)CCCC[C@@H]1SC[C@@H]2NC(=O)N[C@@H]21)C(=O)O` [compound 142] (Biotin-GGSGGGGSGGGGSRQLL-OH), the Kd in assay [2] (setting [6]) was under 100 nM. Also, the “AUC score, TR-FRET measurements of ternary complex formation” value in assay [4] was “+ (AUC < 5000)”.
The like results for `CC(C)C[C@H](NC(=O)[C@H](CC(C)C)NC(=O)[C@H](CCC(N)=O)NC(=O)[C@H](CCCNC(=N)N)NC(=O)CNC(=O)[C@H](CO)NC(=O)CNC(=O)CNC(=O)CNC(=O)CNC(=O)[C@H](CO)NC(=O)CNC(=O)CNC(=O)CCCC[C@@H]1SC[C@@H]2NC(=O)N[C@@H]21)C(=O)O` [compound 141] (Biotin-GGSGGGGSGRQLL-OH) were, in that order, under 100 nM and “+ (AUC < 5000)”.
Consider `Cc1nc2cc(F)c(-c3cnc(OCCOCCOCCOCCOCCOCCOCCNC(=O)c4ccc(Oc5cccc(OCC(=O)N[C@@H](CCC(C)(C)C)C(=O)O)c5)nc4)nc3)nc2c(N[C@H](C)c2cc(C#N)ccc2F)c1Cl` [BF079], for which the Kd on TNFa-6His was under 2000 nM.
`CC(C)(C)CC[C@H](NC(=O)c1ccc(Oc2cccc(OCCOCCOCCOCCOCCOCCNC(=O)CCCC[C@@H]3SC[C@@H]4NC(=O)N[C@@H]43)c2)nc1)C(=O)O` (stereo in doubt) [BF025]: in assay [1], the “AUC score, target internalization” value is reported as “+ (AUC < 100)”. Also, the Kd in assay [2] (setting [5]) was in the range of 10 to 250 nM. The “AUC score, ternary complex formation” value in assay [3] is “+ (AUC < 25.000)”.

For orientation: Kd means the equilibrium constant for the complex coming apart.
